A short description of series [1]: Effect of heat treatment on carrier-bound fraction of octreotide (loading system 3). As to conditions: 200 μg/ml octreotide, 5% amphiphile analogue of loading system 3. Format: physicochemical. The protocol: Octreotide at a concentration of 200 μg/ml was added to 5% amphiphile analogues of loading system 3 (water content 95%). One set of samples were equilibrated at room temperature for 1 day, while another set was autoclaved at 125° C. for 20 minutes. The ocreotide concentration was determined by HPLC using a size exclusion column coupled to a UV detector.

Series [2] can be described thus: Higher loading of progesterone by heat treatment (GMO/oleic acid/Lutrol F127 cubic particles). Format: physicochemical. The protocol:
Pre-formulations were prepared, including the fatty acid oleic acid, by the following method. • a) An initial melt was prepared containing GMO (85.5%), oleic acid (4.5%) and Lutrol F127 (10%). To 9 g of water under mechanical stirring was added 1 g of the molten mixture to form a coarse dispersion. • b) The coarse dispersion was homogenised with a microfluidiser at 345 bar. • c) The dispersion was heated to 120° C. for 20 minutes and cooled to room temperature.
The steroid hormone progesterone was incubated with the cubic particles formed in steps a) to c), at room temperature. The equilibrium loading level was 3% by weight.
The above method was repeated by the active agent progesterone was included in the aqueous phase prior to the homogenisation and heat treatment steps. The loading level was again examined and established to be 18 wt %. The effect upon the particle size distribution was minimal.
The composition with 18 wt % progesterone generated above was stored at room temperature for 14 days.

From patent US9067190B2, “Method for loading amphiphile particles with active agents” (CAMURUS AB, priority 2003, dated 2015) come the findings set out here.

The structures appear in SMILES notation.

For the compound `C[C@@H](O)[C@@H]1NC(=O)[C@H](CCCCN)NC(=O)[C@@H](Cc2c[nH]c3ccccc23)NC(=O)[C@H](Cc2ccccc2)NC(=O)[C@@H](NC(=O)[C@H](N)Cc2ccccc2)CSSC[C@@H](C(=O)N[C@H](CO)[C@@H](C)O)NC1=O` [octreotide], the “% bound octreotide” value in series [1] (1 day at room temperature) turned out to be 18.07%; in series [1] (After Autoclavation 20 min (125° C.)), 30.04%.
`CC(=O)[C@H]1CC[C@H]2[C@@H]3CCC4=CC(=O)CC[C@]4(C)[C@H]3CC[C@]12C` [progesterone]: in series [2] (heat treatment loading of progesterone), the “Effect upon the particle size distribution” value is reported as “minimal”. Besides, the Loading level in series [2] (progesterone in aqueous phase prior to homogenisation and heat treatment (120° C., 20 minutes)) came to 18 wt %. In series [2] (progesterone incubated with preformed cubic particles at room temperature), the Equilibrium loading level is listed as 3 % by weight.
